Counter-ions that a name gives are not always drawn. Like-named read-outs stand apart in the source and are kept apart here. Values belong to the compound of their own block, whether it stands above or below them.
Biological target: T1, Rat brain protein farnesyltransferase (Rattus norvegicus, UniProt Q02293+Q04631)
T1 construct: Rat brain protein farnesyltransferase activity is measured; from tissue; host or cells: rat brain
Experiment: % inhibition of farnesylation, scintillation proximity assay with biotin-K Ras B fragment
Assay type: biochemical
Conditions: for % inhibition at 1 × 10^-5 M: Table 1; for inhibition at 1 µM: read-out: % inhibition at 1 × 10^-6 M
Outline: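 Rat brain enzyme, purified through three steps, in a scintillation proximity assay kit with biotin-K Ras B fragment substrate at 0.1 mM final. Value is % inhibition of farnesylation.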

[1] = read-out: % inhibition at 1 × 10^-7 M
[2] = read-out: % inhibition at 0.01 μM (**), Table 6, ** footnote 0.01 μM (title: 0.01 mM)
[3] = read-out: % inhibition at 1 × 10^-8 M, Table 4, 1 × 10^-8 M
[4] = read-out: % inhibition at 1 × 10^-8 M

T1 sequence (Q02293 whole entry, one chain of several): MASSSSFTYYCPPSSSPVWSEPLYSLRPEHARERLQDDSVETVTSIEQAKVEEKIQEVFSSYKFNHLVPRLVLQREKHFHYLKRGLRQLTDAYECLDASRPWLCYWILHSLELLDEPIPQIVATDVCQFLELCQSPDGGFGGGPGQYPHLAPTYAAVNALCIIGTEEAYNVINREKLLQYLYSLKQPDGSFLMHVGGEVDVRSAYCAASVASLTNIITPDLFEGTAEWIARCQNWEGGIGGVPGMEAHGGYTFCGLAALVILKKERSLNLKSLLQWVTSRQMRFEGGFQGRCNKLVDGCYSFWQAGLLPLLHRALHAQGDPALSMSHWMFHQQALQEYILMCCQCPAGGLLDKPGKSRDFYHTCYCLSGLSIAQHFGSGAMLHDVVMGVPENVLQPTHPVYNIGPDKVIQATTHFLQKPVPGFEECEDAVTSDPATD

- % inhibition at 1 × 10^-5 M: 72%
SMILES: CSCC[C@H](NC(=O)c1ccc(CNc2ccc3c(c2)CCC3)cc1-c1ccccc1)C(=O)O [Example 705]

- % inhibition at 1 × 10^-8 M (Table 4, 1 × 10^-8 M): 86%
SMILES: CSCC[C@H](NC(=O)c1ccc(CON=C(Cc2ccccc2)Cc2ccccc2)cc1-c1ccccc1C)C(=O)O [Example 888]

- % inhibition at 1 × 10^-6 M (Table 2, 1 × 10^-6 M): 87%
SMILES: CSCC[C@H](NC(=O)c1ccc(C=CCCCc2ccccc2)cc1-c1ccccc1C)C(=O)O [Example 480]

- % inhibition at 1 × 10^-6 M (Table 2, 1 × 10^-6 M): 98%
SMILES: Cc1ccccc1-c1cc(CN(C2CC2)C2(CC3CCCCC3)CCCC2)ccc1C(=O)N[C@@H](CCS(C)(=O)=O)C(=O)O [Example 346]

- inhibition at 0.1 µM (read-out: % inhibition at 0.1 μM (*), Table 6, * footnote 0.1 μM (title: 0.1 mM)): 76%
SMILES: CSCC[C@H](NC(=O)c1ccc(COC(Cc2ccccc2)C2CCN(S(=O)(=O)c3ccccc3)CC2)cc1-c1ccccc1C)C(=O)O (stereo partly shown) [Example 1253, N-[4-(2-phenyl-1-(4-(N-phenylsulfonyl)piperidinyl)ethyloxymethyl-2-(2-methylphenyl)benzoyl]methioninelithium salt]

- % inhibition at 1 × 10^-6 M (Table 2, 1 × 10^-6 M): 98%
SMILES: CSCC[C@H](NC(=O)c1ccc(CCCCC2CCCCC2)cc1-c1ccccc1C)C(=O)O [Example 478]

- inhibition at 1 µM (Table 2, 1 × 10^-6 M): 98%
SMILES: CSCC[C@H](NC(=O)c1ccc(OCCCC2CCCCC2)cc1-c1ccccc1C)C(=O)O [Example 564, N-[4-(3-cyclohexylpropoxy)-2-(2-methylphenylbenzoyl]methionine, lithium salt]

- % inhibition at 1 × 10^-6 M (Table 2, 1 × 10^-6 M): 69%
SMILES: CSCC[C@H](NC(=O)c1ccc(CNCc2ccccc2)cc1-c1ccccc1)C(=O)O.Cl [Example 936]

- % inhibition at 1 × 10^-6 M (Table 2, 1 × 10^-6 M): 64%
SMILES: CSCC[C@H](NC(=O)c1ccc(CN(C)C(C)(C)Cc2ccccc2)cc1-c1ccccc1C)C(=O)O [Example 982]

- % inhibition at 1 × 10^-7 M (Table 3, 1 × 10^-7 M): 84%
SMILES: CSCC[C@H](NC(=O)c1ccc(CN2CCCC(OCC3CCCCC3)C2)cc1-c1ccccc1C)C(=O)O (stereo partly shown) [Example 990]

- % inhibition at 1 × 10^-7 M (Table 3, 1 × 10^-7 M): 89%
SMILES: CSCC[C@H](NC(=O)c1ccc(CNCCc2c[nH]c3ccccc23)cc1-c1ccccc1C)C(=O)O [Example 519]

- inhibition at 0.01 µM [2]: 92%
SMILES: CSCC[C@H](NC(=O)c1ccc(COC(CCC2CCCCC2)c2cnnn2C)cc1-c1ccccc1C)C(=O)O (stereo partly shown) [Example 1225, N-[4-(1-(1-Methyl-1,2,3-triaz-5-yl)-3-cyclohexylpropan-1-yloxymethyl)-2-(2-methylphenyl)benzoyl]methionine lithium salt]

- inhibition at 0.01 µM [2]: 94%
SMILES: CSCC[C@H](NC(=O)c1ccc(CO[C@H](COC2CCC2)CC2CCCCC2)cc1-c1ccccc1C)C(=O)O [Example 1345]

- inhibition at 0.01 µM [2]: 92%
SMILES: CSCC[C@H](NC(=O)c1ccc(COCC2CCCN2C(=O)OCC2CCCCC2)cc1-c1ccccc1C)C(=O)O (stereo partly shown) [Example 1129, N-[4-(N-cyclohexylmethoxycarbonylpyrrolin-2-ylmethoxymethyl)-2-(2-methylphenyl)benzoyl]methionine Sodium salt]

- inhibition at 0.01 µM [3]: 75%
SMILES: CSCC[C@H](NC(=O)c1ccc(COCc2ccc(-c3ccc(N(C)C)cc3)o2)cc1-c1ccccc1C)C(=O)O [Example 821, N-[4-(5-(4-N,N-dimethylaminophenyl)furan-2-ylmethoxymethyl)-2-(2-methylphenyl)benzoyl]methionine lithium salt]

- % inhibition at 1 × 10^-8 M (Table 4, 1 × 10^-8 M): 93%
SMILES: CSCC[C@H](NC(=O)c1ccc(CN2CCC[C@H]2COCC2CCCCC2)cc1-c1ccccc1C)C(=O)O [Example 992]

- % inhibition at 1 × 10^-6 M (Table 2, 1 × 10^-6 M): 95%
SMILES: CSCC[C@H](NC(=O)c1ccc(CN[C@H](CO)Cc2ccccc2)cc1-c1ccccc1C)C(=O)O [Example 727]

- inhibition at 0.01 µM [2]: 80%
SMILES: CSCC[C@H](NC(=O)c1ccc(COC(CC2CCCCC2)c2scnc2C)cc1-c1ccccc1C)C(=O)O (stereo partly shown) [Example 1097, N-[4-(1-(4-methylthiazol-5-yl)-2-cyclohexylethoxy)methyl)-2-(2-methylphenyl)benzoyl]methionine lithium salt]

- % inhibition at 1 × 10^-6 M (Table 2, 1 × 10^-6 M): 76%
SMILES: CCSC[C@H](CC1CCCCC1)NCc1ccc(C(=O)N(C)[C@@H](CCSC)C(=O)O)c(-c2ccccc2C)c1 [Example 765]

- inhibition at 0.01 µM [2]: 90%
SMILES: COC[C@H](CC1CCCCC1)OCc1ccc(C(=O)N[C@@H](CCSC)C(=O)O)c(-c2ccccc2C)c1 [Example 1304, N-[4-(3-Cyclohexyl-1-methoxyprop-2-yloxymethyl)-2-(2-methylphenyl)benzoyl]methionine Lithium Salt]

- % inhibition at 1 × 10^-6 M (Table 2, 1 × 10^-6 M): 85%
SMILES: CSCC[C@H](NC(=O)c1ccc(NC(=O)OCc2cncs2)cc1-c1ccccc1C)C(=O)O [Example 902]

- inhibition at 0.01 µM [2]: 93%
SMILES: CSCC[C@H](NC(=O)c1ccc(CO[C@H](CO)CC2CCCCC2)cc1-c1ccccc1C)C(=O)O [Example 1049, N-[4-(3-cyclohexyl-1-hydroxyprop-2-yloxymethyl)-2-(2-methylphenyl)benzoyl]methionine, lithium salt]

- % inhibition at 1 × 10^-5 M: 76%
SMILES: CSCC[C@H](NC(=O)c1ccc(CNc2cc(C)ns2)cc1-c1ccccc1)C(=O)O [Example 373]

- % inhibition at 1 × 10^-6 M (Table 2, 1 × 10^-6 M): 90%
SMILES: CSCC[C@H](NC(=O)c1ccc(CN(C)CC(O)CO)cc1-c1ccccc1C)C(=O)O (stereo partly shown) [Example 719]

- % inhibition at 1 × 10^-6 M (Table 2, 1 × 10^-6 M): 37%
SMILES: CSCC[C@H](NC(=O)c1ccc(CNc2cccc(I)c2)cc1-c1ccccc1)C(=O)O [Example 677]

- % inhibition at 1 × 10^-6 M (Table 2, 1 × 10^-6 M): 93%
SMILES: CSCC[C@H](NC(=O)c1ccc(C=CCc2ccc3ccccc3c2)cc1-c1ccccc1C)C(=O)O [Example 496]

- % inhibition at 1 × 10^-6 M (Table 2, 1 × 10^-6 M): 98%
SMILES: CSCC[C@H](NC(=O)c1ccc(CN(C2CC2)C2(Cc3ccccc3)CCC2)cc1-c1ccccc1C)C(=O)O [Example 329]

Further lines, the compound ahead of its results:

SMILES: CSCC[C@H](NC(=O)c1ccc(COCc2cnc(C(C)(C)C)s2)cc1-c1ccccc1C)C(=O)O [Example 895, N-[4-(2-t-butylthiazol-5-ylmethoxymethyl)-2-(2-methylphenyl)benzoyl]methionine lithium salt]
- inhibition at 0.1 µM [1]: 92%

SMILES: CSCC[C@H](NC(=O)c1ccc(CNc2cccc(CCC(=O)O)c2)cc1-c1ccccc1)C(=O)O [Example 685]
- % inhibition at 1 × 10^-5 M: 55%

SMILES: CSCC[C@H](NC(=O)c1ccc(CSC2CCCCC2)cc1-c1ccccc1C)C(=O)O [Example 550, N-[4-cyclohexylthiomethyl-2-(2-methylphenyl)benzoyl]methionine, lithium salt]
- inhibition at 1 µM: 96%

SMILES: CSCC[C@H](NC(=O)c1ccc(COCCCc2ccccc2)cc1-c1ccccc1C)C(=O)O [Example 595, N-[4-(3-phenylpropoxymethyl)-2-(2-methylphenyl)benzoyl]methionine lithium salt]
- inhibition at 1 µM: 97%

SMILES: CSCC[C@H](NC(=O)c1ccc(CNC(CC2CCCCC2)C2CCCCC2)cc1-c1ccccc1C)C(=O)[O-].[Li+] (stereo partly shown) [Example 616]
- % inhibition at 1 × 10^-7 M (Table 3, 1 × 10^-7 M): 95%

SMILES: CSCC[C@H](NC(=O)c1ccc(CN(CCO)Cc2ccccc2)cc1-c1ccccc1)C(=O)O [Example 515]
- % inhibition at 1 × 10^-6 M (Table 2, 1 × 10^-6 M): 72%

SMILES: CSCC[C@H](NC(=O)c1ccc(COCc2ccccc2)cc1-c1ccccc1C)C(=O)O [Example 571, N-[4-(benzyloxymethyl)-2-(2-methylphenyl)benzoyl]methionine lithium salt]
- inhibition at 0.1 µM [1]: 88%

SMILES: CSCC[C@H](NC(=O)c1ccc(N2CC(=O)NNC2=O)cc1-c1ccccc1)C(=O)O [Example 224]
- % inhibition at 1 × 10^-6 M (Table 2, 1 × 10^-6 M): 41%

SMILES: CSCC[C@H](NC(=O)c1ccc(/C=C/c2ccc(Oc3cccc([N+](=O)[O-])c3)cc2)cc1-c1ccccc1C)C(=O)O [Example 861]
- % inhibition at 1 × 10^-7 M (Table 3, 1 × 10^-7 M): 65%

SMILES: CSCC[C@H](NC(=O)c1ccc(CCc2cccc(Oc3ccccc3)c2)cc1-c1ccccc1C)C(=O)[O-].[Li+] [Example 459]
- % inhibition at 1 × 10^-7 M (Table 3, 1 × 10^-7 M): 92%

SMILES: CSCC[C@H](NC(=O)c1ccc(CN(CC(c2ccccc2)c2ccccc2)c2ccccc2)cc1-c1ccccc1C)C(=O)O [Example 509]
- % inhibition at 1 × 10^-6 M (Table 2, 1 × 10^-6 M): 77%

SMILES: COc1cc(Cl)ccc1C(=O)Nc1ccc(C(=O)N[C@@H](CCSC)C(=O)O)c(-c2ccccc2)c1 [Example 753]
- % inhibition at 1 × 10^-5 M: 55%

SMILES: CSCC[C@H](NC(=O)c1ccc(S(=O)(=O)N(Cc2ccccc2)c2ccccc2)cc1-c1ccccc1C)C(=O)[O-].[Li+] [Example 768]
- % inhibition at 1 × 10^-6 M (Table 2, 1 × 10^-6 M): 67%

SMILES: CSCC[C@H](NC(=O)c1ccc(COCCCCC2CCCCC2)cc1-c1ccccc1C)C(=O)O [Example 600]
- inhibition at 0.1 µM (read-out: % inhibition at 1 × 10^-7 M, Table 3, 1 × 10^-7 M): 93%

SMILES: CSCC[C@H](NC(=O)c1ccc(COCc2ccc(-c3ccccc3F)o2)cc1-c1ccccc1C)C(=O)O [Example 437, N-[4-(5-(2-fluorophenyl)furan-2-ylmethoxymethyl)-2-(2-methylphenyl)benzoyl]methionine lithium salt]
- inhibition at 0.1 µM [1]: 89%

SMILES: CSCC[C@H](NC(=O)c1ccc(COCCc2ccc(Cl)cc2Cl)cc1-c1ccccc1C)C(=O)O [Example 591, N-[4-(2-(2,4-dichlorophenyl)ethoxymethyl)-2-(2-methylphenyl)benzoyl]methionine lithium salt]
- inhibition at 0.01 µM [4]: 82%

SMILES: CSCC[C@H](NC(=O)c1ccc(COCc2ccccc2C)cc1-c1ccccc1C)C(=O)O [Example 577, N-[4-(2-methylbenzyloxymethyl)-2-(2-methylphenyl)benzoyl]methionine lithium salt]
- inhibition at 1 µM: 94%

SMILES: CSCC[C@H](NC(=O)c1ccc(COCc2ccccc2C(C)C)cc1-c1ccccc1C)C(=O)O [Example 938, N-[4-(2-isopropylbenzyloxymethyl)-2-(2-methylphenyl)benzoyl]methionine lithium salt]
- inhibition at 0.01 µM [4]: 61%

SMILES: CSCC[C@H](NC(=O)c1ccc(COCc2ccc(-c3ccc(Cl)cc3)o2)cc1-c1ccccc1C)C(=O)NS(=O)(=O)c1ccccc1 [Example 819, N-[4-(5-(4-chlorophenyl)furan-2-ylmethoxymethyl)-2-(2-methylphenyl)benzoyl]methionine benzenesulfonimide]
- inhibition at 0.01 µM [3]: 76%
